# Source: PubChem BioAssay AID1963864 (Molecular Pharmacology Branch, DTP, NCI, 2024)
# Tested on: KRAS PDC multicell spheroid viability
# Experiment: Anticancer human tumor 521955-158-R6-J3-PDC patient-derived pancreatic carcinoma cell line growth inhibition [KRAS2]
# Settings: for IC50: curve of first compound; for viability, T/C: stronger effect = lower value
# How it was run: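 Combination screen of spheroid viability in tumor-cell co-cultures with endothelial (HUVEC) and mesenchymal stem cell stroma. Each agent was tested in half-log dilutions, topping at clinical Cmax or at 10 microM without a known Cmax.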
# [1] = second compound 0.1 µM, first compound 0.000316 µM
# [2] = second compound 0.1 µM, first compound 0.001 µM
# [3] = second compound 0.1 µM, first compound 0.00316 µM
# [4] = second compound 0.1 µM, first compound 0.01 µM
# [5] = second compound 0.1 µM, first compound 0.0316 µM
# [6] = second compound 0.316 µM, first compound 0.000316 µM
# [7] = second compound 0.316 µM, first compound 0.001 µM
# [8] = second compound 0.316 µM, first compound 0.00316 µM
# [9] = second compound 0.316 µM, first compound 0.01 µM
# [10] = second compound 0.316 µM, first compound 0.0316 µM
# [11] = second compound 1 µM, first compound 0.000316 µM
# [12] = second compound 1 µM, first compound 0.001 µM
# [13] = second compound 1 µM, first compound 0.00316 µM
# [14] = second compound 1 µM, first compound 0.01 µM
# [15] = second compound 1 µM, first compound 0.0316 µM
# [16] = second compound 3.16 µM, first compound 0.000316 µM
# [17] = second compound 3.16 µM, first compound 0.001 µM
# [18] = second compound 3.16 µM, first compound 0.00316 µM
# [19] = second compound 3.16 µM, first compound 0.01 µM
# [20] = second compound 3.16 µM, first compound 0.0316 µM
# [21] = second compound 10 µM, first compound 0.000316 µM
# [22] = second compound 10 µM, first compound 0.001 µM
# [23] = second compound 10 µM, first compound 0.00316 µM
# [24] = second compound 10 µM, first compound 0.01 µM
# [25] = second compound 10 µM, first compound 0.0316 µM
# [26] = second compound 0.1 µM, first compound 0.1 µM
# [27] = second compound 0.316 µM, first compound 0.1 µM
# [28] = second compound 1 µM, first compound 0.1 µM
# [29] = second compound 3.16 µM, first compound 0.1 µM
# [30] = second compound 10 µM, first compound 0.1 µM
# [31] = second compound 0.1 µM, first compound 0.316 µM
# [32] = second compound 0.1 µM, first compound 1 µM
# [33] = second compound 0.1 µM, first compound 3.16 µM
# [34] = second compound 0.1 µM, first compound 10 µM
# [35] = second compound 0.316 µM, first compound 0.316 µM
# [36] = second compound 0.316 µM, first compound 1 µM
# [37] = second compound 0.316 µM, first compound 3.16 µM
# [38] = second compound 0.316 µM, first compound 10 µM
# [39] = second compound 1 µM, first compound 0.316 µM
# [40] = second compound 1 µM, first compound 1 µM
# [41] = second compound 1 µM, first compound 3.16 µM
# [42] = second compound 1 µM, first compound 10 µM
# [43] = second compound 3.16 µM, first compound 0.316 µM
# [44] = second compound 3.16 µM, first compound 1 µM
# [45] = second compound 3.16 µM, first compound 3.16 µM
# [46] = second compound 3.16 µM, first compound 10 µM
# [47] = second compound 10 µM, first compound 0.316 µM
# [48] = second compound 10 µM, first compound 1 µM
# [49] = second compound 10 µM, first compound 3.16 µM
# [50] = second compound 10 µM, first compound 10 µM
# 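Also: drug exposure lasted seven days.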
# 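For viability, T/C in this document: 100% = DMSO vehicle wells and lower means fewer viable cells.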
smiles,measurement,setting,value
CC(=O)Nc1cccc(-n2c(=O)n(C3CC3)c(=O)c3c(Nc4ccc(I)cc4F)n(C)c(=O)c(C)c32)c1 + COc1cc2nc(C)nc(NC(C)c3cc(N)cc(C(F)(F)F)c3)c2cc1OC1CCOC1,IC50,second compound 0.1 µM,0.0167 µM
same,IC50,second compound 0.316 µM,0.0102 µM
same,IC50,second compound 1 µM,0.0123 µM
same,IC50,second compound 3.16 µM,0.00623 µM
same,IC50,second compound 10 µM,< 0.0001 µM
same,"viability, T/C","second compound 0.1 µM, first compound 0.0001 µM",88%
same,"viability, T/C",[1],88.4%
same,"viability, T/C",[2],92.4%
same,"viability, T/C",[3],81.7%
same,"viability, T/C",[4],60.7%
same,"viability, T/C",[5],36.9%
same,"viability, T/C","second compound 0.316 µM, first compound 0.0001 µM",88.1%
same,"viability, T/C",[6],83.6%
same,"viability, T/C",[7],75.3%
same,"viability, T/C",[8],67.1%
same,"viability, T/C",[9],48.8%
same,"viability, T/C",[10],37.4%
same,"viability, T/C","second compound 1 µM, first compound 0.0001 µM",81.4%
same,"viability, T/C",[11],86.6%
same,"viability, T/C",[12],81.1%
same,"viability, T/C",[13],67.5%
same,"viability, T/C",[14],55.4%
same,"viability, T/C",[15],31.8%
same,"viability, T/C","second compound 3.16 µM, first compound 0.0001 µM",72.6%
same,"viability, T/C",[16],79.3%
same,"viability, T/C",[17],76.7%
same,"viability, T/C",[18],54.6%
same,"viability, T/C",[19],45.5%
same,"viability, T/C",[20],21.8%
same,"viability, T/C","second compound 10 µM, first compound 0.0001 µM",20.7%
same,"viability, T/C",[21],21.2%
same,"viability, T/C",[22],10.6%
same,"viability, T/C",[23],1.6%
same,"viability, T/C",[24],4.51%
same,"viability, T/C",[25],2.2%
CN(C)C/C=C/C(=O)Nc1cc2c(Nc3ccc(F)c(Cl)c3)ncnc2cc1O[C@H]1CCOC1 + COc1cc2nc(C)nc(NC(C)c3cc(N)cc(C(F)(F)F)c3)c2cc1OC1CCOC1,IC50,second compound 0.1 µM,> 0.1 µM
same,IC50,second compound 0.316 µM,> 0.1 µM
same,IC50,second compound 1 µM,> 0.1 µM
same,IC50,second compound 3.16 µM,0.00284 µM
same,IC50,second compound 10 µM,0.0032 µM
same,"viability, T/C",[1],89.3%
same,"viability, T/C",[2],78.3%
same,"viability, T/C",[3],72.3%
same,"viability, T/C",[4],61.2%
same,"viability, T/C",[5],54%
same,"viability, T/C",[26],55.5%
same,"viability, T/C",[6],93%
same,"viability, T/C",[7],106%
same,"viability, T/C",[8],78.5%
same,"viability, T/C",[9],65%
same,"viability, T/C",[10],54.7%
same,"viability, T/C",[27],53.2%
same,"viability, T/C",[11],105%
same,"viability, T/C",[12],100%
same,"viability, T/C",[13],89.5%
same,"viability, T/C",[14],61.8%
same,"viability, T/C",[15],56.1%
same,"viability, T/C",[28],48.6%
same,"viability, T/C",[16],84%
same,"viability, T/C",[17],78.2%
same,"viability, T/C",[18],46.9%
same,"viability, T/C",[19],51.1%
same,"viability, T/C",[20],44.4%
same,"viability, T/C",[29],45.5%
same,"viability, T/C",[21],59.8%
same,"viability, T/C",[22],54.9%
same,"viability, T/C",[23],50.2%
same,"viability, T/C",[24],26.2%
same,"viability, T/C",[25],32.8%
same,"viability, T/C",[30],25.4%
COC(=O)c1ccc2c(C(=Nc3ccc(N(C)C(=O)CN4CCN(C)CC4)cc3)c3ccccc3)c(O)[nH]c2c1 + COc1cc2nc(C)nc(NC(C)c3cc(N)cc(C(F)(F)F)c3)c2cc1OC1CCOC1,IC50,second compound 0.1 µM,3.01 µM
same,IC50,second compound 0.316 µM,3.53 µM
same,IC50,second compound 1 µM,2.41 µM
same,IC50,second compound 3.16 µM,1.72 µM
same,IC50,second compound 10 µM,< 0.0316 µM
same,"viability, T/C",[5],90%
same,"viability, T/C",[26],95.7%
same,"viability, T/C",[31],107%
same,"viability, T/C",[32],115%
same,"viability, T/C",[33],47.6%
same,"viability, T/C",[34],0.24%
same,"viability, T/C",[10],93.9%
same,"viability, T/C",[27],90.3%
same,"viability, T/C",[35],91.4%
same,"viability, T/C",[36],122%
same,"viability, T/C",[37],55.2%
same,"viability, T/C",[38],0.21%
same,"viability, T/C",[15],84%
same,"viability, T/C",[28],94.4%
same,"viability, T/C",[39],107%
same,"viability, T/C",[40],115%
same,"viability, T/C",[41],34.5%
same,"viability, T/C",[42],1.78%
same,"viability, T/C",[20],75.8%
same,"viability, T/C",[29],75.5%
same,"viability, T/C",[43],108%
same,"viability, T/C",[44],101%
same,"viability, T/C",[45],4.81%
same,"viability, T/C",[46],0.15%
same,"viability, T/C",[25],42%
same,"viability, T/C",[30],29.7%
same,"viability, T/C",[47],6.94%
same,"viability, T/C",[48],2.96%
same,"viability, T/C",[49],2.48%
same,"viability, T/C",[50],0.99%
O=C(c1cc(Cc2n[nH]c(=O)c3ccccc23)ccc1F)N1CCN(C(=O)C2CC2)CC1 + COc1cc2nc(C)nc(NC(C)c3cc(N)cc(C(F)(F)F)c3)c2cc1OC1CCOC1,IC50,second compound 0.1 µM,> 10 µM
same,IC50,second compound 0.316 µM,> 10 µM
same,IC50,second compound 1 µM,> 10 µM
same,IC50,second compound 3.16 µM,> 10 µM
same,IC50,second compound 10 µM,> 10 µM
same,"viability, T/C",[5],82.4%
same,"viability, T/C",[26],76.4%
same,"viability, T/C",[31],86.1%
same,"viability, T/C",[32],75.5%
same,"viability, T/C",[33],69.2%
same,"viability, T/C",[34],80.2%
same,"viability, T/C",[10],88.9%
same,"viability, T/C",[27],88.8%
same,"viability, T/C",[35],80.5%
same,"viability, T/C",[36],70.5%
same,"viability, T/C",[37],67.1%
same,"viability, T/C",[38],77.7%
same,"viability, T/C",[15],90.9%
same,"viability, T/C",[28],88.3%
same,"viability, T/C",[39],97.1%
same,"viability, T/C",[40],70.8%
same,"viability, T/C",[41],70.3%
same,"viability, T/C",[42],83.5%
same,"viability, T/C",[20],70.1%
same,"viability, T/C",[29],75.6%
same,"viability, T/C",[43],67.2%
same,"viability, T/C",[44],60.8%
same,"viability, T/C",[45],63.6%
same,"viability, T/C",[46],75.9%
same,"viability, T/C",[25],55.4%
same,"viability, T/C",[30],59.5%
same,"viability, T/C",[47],55.9%
same,"viability, T/C",[48],53.3%
same,"viability, T/C",[49],65.3%
same,"viability, T/C",[50],77.4%
